Source: article PMC10056485 (International Journal of Molecular Sciences, 2023)
Values joined by “and” are separate entries in the source; they are usually repeats but may differ in a detail not shown here. Identical values can stand only once. Like-named read-outs stand apart in the source and are kept apart here. Marks after values point to notes of the source that are not given here.

Assays:
[1] = cited from earlier work
[2] = system: tumor growth; conditions: combination of cabozantinib and irradiation, in vivo; cited from earlier work
[3] = system: triple-negative 4T1 cells; conditions: combination of RT with cabozantinib, in vitro; cited from earlier work
[4] = metastatic renal cell carcinoma patients, cited from earlier work
[5] = Pharmacokinetics of cabozantinib in plasma of freely moving rats with or without liver radiotherapy; conditions: for AUC(0-t): AUC0-T; for AUC(0-t) / Cmax / MRT / Tmax / Vss: rat plasma, 6 mg/kg p.o. q.d. 3 days
Method: (§1) The HPLC system consisted of a chromatographic pump (LC-20AT), an online injector (SIL-20C) equipped with a 10 μL sample loop to inject the sample and an ultraviolet detector (SPD-M20A). […] Biochanin A was used as the internal standard (IS), and the retention time of biochanin A was 3.8 min (Figure 4).
(§2) A freely moving rat model was designed for the current study [19]. Briefly, the whole liver for the EBRT technique or central area 1.5 × 1.5 cm in size for the SBRT technique of rats was localized by computed tomography. For the whole liver field, the cranial margin was set 5 mm from the top of the diaphragm, and the caudal margin was set 5 mm lower than the liver margin. The whole liver was targeted for irradiation. […] The data were collected from six rats per group.
(§3) A radiation dose of 2 Gy was considered the daily conventional dose or the off-target dose around the target that received an ablation RT dose. Nine Gy was used to simulate the SBRT dose. […] Rats were initially anesthetized with pentobarbital (50 mg/kg, i.p.) and remained anesthetized throughout the experimental period. After the surgery, the rats were placed in an experimental cage and allowed to recover for 1 day. Cabozatinib was dissolved in triply deionized water and administered (6 mg/kg, p.o.) to the rats (n = 6 per group).
(§4) Blood samples were collected via polyethylene tubing (PE-50) implanted into the jugular vein of each rat in a heparin-rinsed vial. An aliquot of 100–120 µL of blood was collected at time intervals of 0, 5, 15, 30, 45, 60, 90, 120, 150, 180, 210 and 240 min following drug administration. At each time point, 200 μL of blood was drawn into heparin-rinsed Eppendorf tubes and then centrifuged at 13,000 rpm for 10 min at 4 °C to obtain plasma. Plasma was stored at −20 °C until analysis. Each collected blood sample was transferred to a heparinized microcentrifuge tube and centrifuged at 13,000 rpm for 10 min. The resulting plasma (50 μL) was then mixed with 150 μL of internal standard solution (10 μg/mL). The denatured protein precipitate was separated by vortexing for 20 s and centrifuged at 13,000 rpm for 10 min at 4 °C.
(§5) Pharmacokinetic parameters, including the area under the concentration versus time curve (AUC), clearance (CL), elimination half-life (𝑡1/2), volume of distribution at steady state (Vss) and mean residence time (MRT), were calculated using the pharmacokinetics calculation software WinNonlin Standard Edition, Version 1.1 (Scientific Consulting, Apex, NC, USA) by a compartmental method. Relative bioavailability (RB %) = (AUCirradiated/AUCcontrol) × 100.

[6] = Sprague-Dawley, rat, in vivo
Method: as §1, §2, §3, §4, §5

[7] = system: plasma protein; conditions: cited from earlier work
[8] = cited from earlier work; remark: listed apart in the source
[9] = parameters: method as in PMID 30649748; conditions: cited from earlier work
[10] = Organ distribution (biodistribution) of cabozantinib in rats with or without radiotherapy; format: in vivo, Sprague–Dawley rats; conditions: for Concentration of cabozantinib in brain / Concentration of cabozantinib in heart / Concentration of cabozantinib in kidney / Concentration of cabozantinib in liver / Concentration of cabozantinib in lung / Concentration of cabozantinib in spleen: rat, 6 mg/kg p.o. 3 days, six hours after administration
Method: The whole liver was targeted for irradiation. […] The data were collected from six rats per group.
Nine Gy was used to simulate the SBRT dose.
The brain, liver, heart, spleen, lung and kidney were collected and weighed. These collected samples were stored at −20 °C until analysis.
The thawed organ samples were homogenized in 50% aqueous acetonitrile (the ratio of sample weight to volume was 1:5), and the homogenate was centrifuged at 13,000× g for 10 min at 4 °C. The supernatant was collected, placed in brown Eppendorf tubes, and stored at −20 °C until analysis. Briefly, each organ sample (50 μL) was combined with 150 μL of IS solution (diethylstilbestrol) for protein precipitation. Finally, 20 μL of filtrate was subjected to HPLC analysis.

[11] = cited from earlier work; remark: listed apart in the source
[12] = parameters: method as in PMID 32533042; conditions: cited from earlier work; for Complete recanalization rate: p = 0.014
[13] = Sprague-Dawley, rat, plasma, po, 6 mg/kg, RT 2Gy x 3 f'x concurrent
[14] = Sprague-Dawley, rat, plasma, po, 6 mg/kg, RT 2Gy x 3 f'x sequential
[15] = Sprague-Dawley, rat, plasma, po, 6 mg/kg, RT 9Gy x 3 f'x concurrent
[16] = Sprague-Dawley, rat, plasma, po, 6 mg/kg, RT 9Gy x 3 f'x sequential
[17] = Sprague-Dawley, rat, plasma, po, 6 mg/kg, cabozantinib only (no RT)
[18] = phase III study of HCC, cabozantinib alone
[19] = rats, RT9Gy×3 f'x sequential compared to RT9Gy×3 f'x concurrent regimen, p = 0.02

## COc1cc2nccc(Oc3ccc(NC(=O)C4(C(=O)Nc5ccc(F)cc5)CC4)cc3)c2cc1OC [cabozantinib]
[1]
  Half-life: approximately 110 h
[1]; liver function impaired
  Increase of AUC of cabozantinib: 63–81%
[1]; plasma concentration–time profiles
  Time of second absorption peak after administration: approximately 24 h
[1]; renal function impaired
  Increase of AUC of cabozantinib: 7–30%
[2]
  Tumor growth control: not increased
[3]
  Effect on clonogenic survival: a synergistic effect was found
[4]; cabozantinib concurrent with SBRT
  Grade 3–4 AE rate: 3.6%
[4]; cabozantinib concurrent with conventional RT
  Grade 3–4 AE rate: 6.3%
[5]; Sprague-Dawley, rat, plasma, po, 6 mg/kg
  concentration at 60 min: 0.8 µg/mL
[5]; [13]
  AUC(0-t): 5.1 µg·h/mL
  Cmax: 1.6 ± 0.47 µg/mL
  MRT: 13.7 h
  Tmax: 0.611 h
[5]; [14]
  AUC(0-t): 3.9 µg·h/mL
  Cmax: 1.36 ± 0.54 µg/mL
  MRT: 9.05 h
  Tmax: 3.08 h
[5]; [15]
  AUC(0-t): 4.29 µg·h/mL
  Cmax: 1.37 ± 0.47 µg/mL
  MRT: 11.2 h
  Tmax: 0.639 h
[5]; [16]
  AUC(0-t): 4.18 µg·h/mL
  Cmax: 1.35 ± 0.49 µg/mL
  MRT: 38.5 h
  Tmax: 2.92 h
[5]; [17]
  AUC(0-t): 4.44 µg·h/mL
  Cmax: 1.44 ± 0.44 µg/mL
  MRT: 26.7 h
  Tmax: 2.25 h
[5]; RT 2Gy x 3 f'x concurrent
  Vss: 3.942 ± 1.303 L/kg
[5]; RT 2Gy x 3 f'x sequential
  Vss: 5.668 ± 2.22 L/kg
[5]; RT 9Gy x 3 f'x concurrent
  Vss: 4.204 ± 1.272 L/kg
[5]; RT 9Gy x 3 f'x sequential
  Vss: 3.153 ± 0.482 L/kg
[5]; cabozantinib only (no RT)
  Vss: 4.831 ± 1.307 L/kg
[6]
  Decrease of Tmax: 72.8%
  Increase of CL: 249.0%
  Increase of Tmax: 404.1%
[7]
  Plasma protein binding: ≥ 99.7%
[8]; cabozantinib alone for HCC treatment
  Rate of grade 3 or 4 adverse events: 10–17%
[8]; cabozantinib for HCC treatment
  Serious adverse events rate: 12%
[8]; [18]
  Grade 3 or 4 diarrhea: 10%
  Grade 3 or 4 fatigue: 10%
  Grade 3 or 4 hypertension: 16%
  Grade 3 or 4 increased aspartate aminotransferase level: 12%
  Grade 3 or 4 palmar–plantar erythrodysesthesia: 17%
[9]
  Osteonecrosis of jaw: 1%
  Risk of grade 3 or above hemorrhagic events: 2.1–3%
  Serious gastrointestinal perforation or fistula: 1.2–3%
[10]; RT 2Gy concurrent
  Concentration of cabozantinib in brain: 0.00 ± 0.00 µg/mL or µg/g
  Concentration of cabozantinib in heart: 0.52 ± 0.39 µg/mL or µg/g
  Concentration of cabozantinib in kidney: 0.17 ± 0.06 µg/mL or µg/g
  Concentration of cabozantinib in liver: 0.39 ± 0.16 µg/mL or µg/g
  Concentration of cabozantinib in lung: 0.40 ± 0.34 µg/mL or µg/g
  Concentration of cabozantinib in spleen: 0.16 ± 0.03 µg/mL or µg/g
[10]; RT 2Gy sequential
  Concentration of cabozantinib in brain: 0.00 ± 0.00 µg/mL or µg/g
  Concentration of cabozantinib in heart: 0.26 ± 0.11 µg/mL or µg/g
  Concentration of cabozantinib in kidney: 0.29 ± 0.09 ^a µg/mL or µg/g
  Concentration of cabozantinib in liver: 0.47 ± 0.18 µg/mL or µg/g
  Concentration of cabozantinib in lung: 0.35 ± 0.19 µg/mL or µg/g
  Concentration of cabozantinib in spleen: 0.16 ± 0.05 µg/mL or µg/g
[10]; RT 9Gy concurrent
  Concentration of cabozantinib in brain: 0.00 ± 0.00 µg/mL or µg/g
  Concentration of cabozantinib in heart: 0.16 ± 0.05 µg/mL or µg/g
  Concentration of cabozantinib in kidney: 0.16 ± 0.07 µg/mL or µg/g
  Concentration of cabozantinib in liver: 0.28 ± 0.14 µg/mL or µg/g
  Concentration of cabozantinib in lung: 0.16 ± 0.10 µg/mL or µg/g
  Concentration of cabozantinib in spleen: 0.20 ± 0.07 µg/mL or µg/g
[10]; RT 9Gy sequential
  Concentration of cabozantinib in brain: 0.00 ± 0.00 µg/mL or µg/g
  Concentration of cabozantinib in heart: 0.29 ± 0.09 *^b µg/mL or µg/g
  Concentration of cabozantinib in kidney: 0.30 ± 0.14 ^b µg/mL or µg/g
  Concentration of cabozantinib in liver: 0.59 ± 0.24 ^b µg/mL or µg/g
  Concentration of cabozantinib in lung: 0.36 ± 0.08 *^b µg/mL or µg/g
  Concentration of cabozantinib in spleen: 0.16 ± 0.04 µg/mL or µg/g
[10]; cabozantinib only (no RT)
  Concentration of cabozantinib in brain: 0.00 ± 0.00 µg/mL or µg/g
  Concentration of cabozantinib in heart: 0.14 ± 0.06 µg/mL or µg/g
  Concentration of cabozantinib in kidney: 0.22 ± 0.06 µg/mL or µg/g
  Concentration of cabozantinib in liver: 0.44 ± 0.19 µg/mL or µg/g
  Concentration of cabozantinib in lung: 0.25 ± 0.05 µg/mL or µg/g
  Concentration of cabozantinib in spleen: 0.12 ± 0.09 µg/mL or µg/g
[10]; rats, RT2Gy×3 f'x concurrent regimen, printed as compared to the concurrent regimen, p = 0.04
  Increase of biodistribution in the heart: 271.4% and 271%
[10]; rats, RT9Gy×3 f'x sequential compared to RT9Gy×3 f'x concurrent regimen, p = 0.004
  Increase of biodistribution in the lung: 125%
[10]; [19]
  Increase of biodistribution in the heart: 81.3%
  Increase of biodistribution in the liver: 110.5%
[10]; rats, RT9Gy×3 f'x sequential compared to RT9Gy×3 f'x concurrent regimen, p = 0.048
  Increase of biodistribution in the kidneys: 87.5%
[10]; rats, RT9Gy×3 f'x sequential regimen compared with control group, p = 0.01
  Increase of biodistribution in the heart: 107.1% and 107%
[10]; rats, RT9Gy×3 f'x sequential regimen compared with control group, p = 0.02
  Increase of biodistribution in the lung: 44%
[10]; rats, any of the groups
  Detection of cabozantinib in the brain: No cabozantinib was detected
[10]; rats, sequential RT2Gy×3 f'x compared to control group, p = 0.02
  Increase of kidney biodistribution: 31.8% and 32%

## CNC(=O)c1cc(Oc2ccc(NC(=O)Nc3ccc(Cl)c(C(F)(F)F)c3)c(F)c2)ccn1 [regorafenib]
[11]; sequential RT9Gyx3f'x group
  Increase of AUC of regorafenib: 1.3 fold

## CNC(=O)c1cc(Oc2ccc(NC(=O)Nc3ccc(Cl)c(C(F)(F)F)c3)cc2)ccn1 [sorafenib]
[12]; SBRT with sorafenib versus conventional RT
  Complete recanalization rate, SBRT relative to conventional RT: 3 fold
[12]; SBRT with sorafenib
  Complete recanalization rate: 28%
[12]; conventional RT with sorafenib
  Complete recanalization rate: 8%
[11]; concurrent RT9Gy groups
  Increase of AUC of sorafenib: 4 fold
[11]; sequential RT9Gy group
  Increase of AUC of sorafenib: 1.6 fold

## COc1cc2nccc(Oc3ccc(NC(=O)NC4CC4)c(Cl)c3)c2cc1C(N)=O [lenvatinib]
[11]; sequential RT9Gyx3f'x group
  Increase of AUC of lenvatinib: 2 fold
